In patent US20240124467A1, “FUSED PYRIMIDINE COMPOUNDS AS INHIBITORS OF MENIN-MLL INTERACTION” (Biomea Fusion, Inc., priority 2020, published 2024) one finds IC50 data, which are given here for 21 molecules.

What all share (format): cell-based
One experiment deals with K-562. Briefly: Cell proliferation inhibition (CellTiter-Glo), K-562 cells. The conditions noted are these: Homo sapiens, K562, 96 h; K-562 (BCR-ABL), Day 4; read-out: K-562 IC50 μM (Day 4). How it is done:
(§1) The present example evaluates the ability of compounds described herein, inhibitors of Menin/MLL interaction, to inhibit cell proliferation. The proliferation inhibitory effect was investigated in human MLL-leukemia cells selected on the bases of MLL fusion proteins and listed in the table below.
(§2) ATP is present in all metabolically active cells and is considered as a marker for cell viability and proliferation. The metabolic cell activity was determined using the CellTiter-Glo kit from Promega, an ATP monitoring system based on the production of luminescence by the reaction of ATP with added UltraGlo® recombinant luciferase (Kawano et al., 2016, PLOS One, 8:11(7):e0158888), according to the supplier's experimental recommendations. The assay is based on a 96 well plate format. All experiments were carried out in duplicate in one test occasion.
(§3) Test items were dissolved at 20 mM in DMSO with purity ≥99.9% (Sigma catalog no. D8418) and stored at −20° C. Cells were maintained in RPMI-1640 medium (Invitrogen catalog no. 618700) supplemented with 10% of Heat Inactivated FBS (Invitrogen catalog no. 10500) and 1% Pen-Strep (Invitrogen catalog no. 15140) and cultured at 37° C. in a humidified incubator with 5% CO2. Cell lines were grown in suspension and the cell density was maintained in a range of 5×10^4-1×10^6 viable cells/ml where possible. Cells were pelleted at 130 g×5 min.
(§4) Serial dilutions of compounds 1 to 3 in DMSO 100% were prepared starting from a 2.5 mM solutions (prepared by diluting 1:8 the 20 mM stock solution) to generate a 7 point concentration response curve (CRC). Seven concentrations of test compounds (e.g., 5.00×10^−6-1.67×10^−6-5.56×10^−7-1.85×10^−7-6.17×10^−8-2.06×10^−8-6.86×10^−9 M) were assessed in duplicate in an individual test occasion in parallel in the selected cell lines. KO-539 was used as a reference compound and tested in duplicate at seven similar concentrations. 100% of proliferation was represented by the untreated cells (0.2% DMSO).
(§5) Cell proliferation inhibition was monitored at both the following end points: Day 4 (T4) and Day 7 (T7). For the appropriate cell density during the exponential cell growth and re-supply with fresh compound solution at T4, cells were diluted (1:4) with fresh medium containing the compound concentration (1×).
(§6) For each plate to test, one 0.4 μL copy plate and four 0.3 μL copy plates were stamped into 96-well plates not treated for cell adhesion (Sarstedt—cat. no. 82.1581.001) by acoustic liquid handling (Echo) at a concentration which was 500 fold the final assay concentration. Stamped plates were stored at −20° C.
(§7) On Day 0, the day of the experiment cell line suspensions were counted by Cell Viability Analyser, Vi-CELL (Beckman Coulter AY15292), and diluted with fresh medium to obtain the following cell densities: K-562 500 c/ml, MOLM-13 1,000 c/ml, MV4-11 10,000 c/ml, OCI-AML-3 500 c/ml, and U-937 500-1,000 c/ml. 200 μL/well and 150 μL/well of cell suspension were added into the 0.4 μL/well and 0.3 μL/well compound plates, respectively. Cell plate containing 200 μL/well suspension were incubated at 37° C. in a humidified incubator with 5% CO2. From each well of the 150 μL/well cell assay plate, 100 μL were harvested and transferred into a 96-well Optiplate (Perkin Elmer, cat. no. 6005290). Cell viability was measured as described below.
(§8) On Day 4, 150p/well of fresh medium was added into a new 0.3 μL/well copy compound plates. From each well of the 200 μL/well cell assay plate, 100 μL was sampled for the cell viability measurement as described below. 50p was harvested and added to the 150p/well compound plate prepared as described in the first point to dilute 1:4 the cell suspension. The cell assay plate diluted and containing 200 μL/well suspension was incubated at 37° C. in a humidified incubator with 5% CO2.
(§9) On Day 4, 150p/well of fresh medium was added into a new 0.3 μL/well copy compound plates. […]
On the technique in general: In ATP-based viability assays light output follows the ATP content of the culture.

A further experiment relates to MOLM-13. In words: Cell proliferation inhibition (CellTiter-Glo), MOLM-13 cells. To be noted: Homo sapiens, 96 h; MOLM-13 (MLL-AF9), Day 4; read-out: MOLM-13 Day IC50 μM (Day 4)*. How it is done: as §1, §2, §3, §4, §5, §6, §7, §8, §9
The next experiment concerns MV4-11. In words: Cell proliferation inhibition (CellTiter-Glo), MV4-11 cells. To be noted: Homo sapiens, 96 h; MV4-11 (MLL-AF4), Day 4; read-out: MV-4:11 IC50 μM (Day 4)*. The method, then:
as §1, §2, §3, §4, §5, §6, §7, §8, §9

As a reminder, the IC50 is the concentration needed to halve the response being measured. Turning to `C=CC(=O)N[C@@H]1CCCN(Cc2ccnc(C(=O)Nc3ccc(-c4[nH]c5ncnc(N6CCOCC6)c5c4C)cc3)c2)C1` [Compound B0700-528], the IC50 with K-562 stood at 1.18 µM; in the experiment on MOLM-13 it was 0.462 µM; in the experiment on MV4-11 it was 0.464 µM.
In the same order, the values of `C=CC(=O)N[C@@H]1CCCN(Cc2ccnc(C(=O)Nc3ccc(-c4cc5c(N6CCOCC6)ncnc5[nH]4)c(F)c3)c2)C1` [Compound B0700-529, (R)-4-((3-acrylamidopiperidin-1-yl)methyl)-N-(3-fluoro-4-(4-morpholino-7H-pyrrolo[2,3-d]pyrimidin-6-yl)phenyl)picolinamide] are 6.14 µM, 0.351 µM and 0.969 µM.
Turning to `C=CC(=O)N[C@@H]1CCCN(Cc2ccc(F)c(C(=O)Nc3ccc(-c4cc5c(N6CCOCC6)ncnc5[nH]4)cc3)c2)C1` [Compound B0700-530], the IC50 in the experiment on K-562 amounted to 0.616 µM; in the experiment on MOLM-13, 0.28 µM; with MV4-11, 0.314 µM.
Consider `C=CC(=O)N[C@@H]1CCCN(Cc2ccc(C)c(C(=O)Nc3ccc(-c4cc5c(N6CCOCC6)ncnc5[nH]4)cc3)c2)C1` [Compound B0700-531], for which the IC50 in the experiment on K-562 was found to be 0.805 µM; in the experiment with MOLM-13, 0.311 µM; in the experiment with MV4-11 it was 0.345 µM.
Taken in the same sequence, the figures for `C=CC(=O)N[C@@H]1CCCN(Cc2cccc(S(=O)(=O)Nc3ccc(-c4nc5c(N6CCOCC6)ncnc5s4)cc3)c2)C1` [Compound B0700-532, (R)—N-(1-(3-(N-(4-(7-morpholinothiazolo[5,4-d]pyrimidin-2-yl)phenyl)sulfamoyl)benzyl)piperidin-3-yl)acrylamide] were > 10 µM, > 10 µM and > 10 µM.
In the same order, the values of `C=CC(=O)N[C@@H]1CCCN(Cc2cccc(S(=O)(=O)NC3CCN(c4nc5c(N6CCOCC6)ncnc5s4)CC3)c2)C1` [Compound B0700-533] are > 10 µM, > 10 µM and > 10 µM.
As to `C=CC(=O)N[C@@H]1CCCN(Cc2cccc(S(=O)(=O)Nc3ccc(-c4nc5c(N6CCOCC6)ncnc5s4)nc3)c2)C1` [Compound B0700-534, (R)—N-(1-(3-(N-(6-(7-morpholinothiazolo[5,4-d]pyrimidin-2-yl)pyridin-3-yl)sulfamoyl)benzyl)piperidin-3-yl)acrylamide], the IC50 in the experiment with K-562, with MOLM-13 and with MV4-11 was > 10 µM in each case.
For the molecule `C=CC(=O)N[C@@H]1CCN(c2cccc(CS(=O)(=O)Nc3ccc(-c4cc5c(N6CCOCC6)ncnc5[nH]4)cc3)c2)C1` [Compound B0700-535, (R)—N-(1-(3-((N-(4-(4-morpholino-7H-pyrrolo[2,3-d]pyrimidin-6-yl)phenyl)sulfamoyl)methyl)phenyl)pyrrolidin-3-yl)acrylamide], the IC50 is 7.05 µM with K-562, 0.184 µM in the experiment on MOLM-13 and > 10 µM in the experiment with MV4-11.
In the case of `C=CC(=O)N[C@H]1CCN(c2cccc(CS(=O)(=O)Nc3ccc(-c4cc5c(N6CCOCC6)ncnc5[nH]4)cn3)c2)C1` [Compound B0700-536], the IC50 is > 10 µM in the experiment with K-562, 5.68 µM in the experiment with MOLM-13 and 3.88 µM with MV4-11.
As for `C=CC(=O)N[C@H]1CCN(c2cccc(CS(=O)(=O)NC3CCN(c4nc5c(N6CCOCC6)ncnc5s4)CC3)c2)C1` [Compound B0700-537], the IC50 in the experiment with K-562, in the experiment on MOLM-13 and in the experiment with MV4-11 was > 10 µM in each case.
On to `C=CC(=O)N[C@@H]1CCCN(c2cccc(CS(=O)(=O)Nc3ccc(-c4cc5c(N6CCOCC6)ncnc5[nH]4)cc3)c2)C1` [Compound B0700-539], for which the values for the 50% inhibitory concentration (IC50) in the experiment on K-562, with MOLM-13 and with MV4-11 were > 10 µM, 0.374 µM and 0.436 µM, respectively.
Consider `C=CC(=O)N[C@H]1CCCN(c2cccc(CS(=O)(=O)Nc3ccc(-c4cc5c(N6CCOCC6)ncnc5[nH]4)cc3)c2)C1` [Compound B0700-540], for which the IC50 with K-562 is > 10 µM; in the experiment with MOLM-13 it was 0.329 µM; in the experiment with MV4-11, 0.148 µM.
Taken in the same sequence, the figures for `C=CS(=O)(=O)N[C@H]1CCN(c2cccc(CS(=O)(=O)Nc3ccc(-c4cc5c(N6CCOCC6)ncnc5[nH]4)cc3)c2)C1` [Compound B0700-541] were 2.06 µM, 0.193 µM and 0.09 µM.
Taken in the same sequence, the figures for `C=CS(=O)(=O)N[C@@H]1CCCN(c2cccc(CS(=O)(=O)Nc3ccc(-c4cc5c(N6CCOCC6)ncnc5[nH]4)cc3)c2)C1` [Compound B0700-542, (R)—N-(1-(3-((N-(4-(4-morpholino-7H-pyrrolo[2,3-d]pyrimidin-6-yl)phenyl)sulfamoyl)methyl)phenyl)piperidin-3-yl)ethenesulfonamide] were 3.3 µM, 0.48 µM and 0.322 µM.
Taken in the same sequence, the figures for `C=CC(=O)N[C@H]1CCN(c2cccc(C(C)S(=O)(=O)Nc3ccc(-c4cc5c(N6CCOCC6)ncnc5[nH]4)cc3)c2)C1` (stereo partly drawn) [Compound B0700-543] were 9.07 µM, 0.158 µM and 0.073 µM.
With `C=CC(=O)N[C@@H]1CCCN(c2cccc(C(C)S(=O)(=O)Nc3ccc(-c4cc5c(N6CCOCC6)ncnc5[nH]4)cc3)c2)C1` (stereo partly drawn) [Compound B0700-545], the IC50 in the experiment on K-562 is > 10 µM; in the experiment on MOLM-13, 1.07 µM; with MV4-11 it was 0.84 µM.
In the same order, the values of `C=CC(=O)N[C@@H]1CCCN(c2cccc([C@@H](C)S(=O)(=O)Nc3ccc(-c4cc5c(N6CCOCC6)ncnc5[nH]4)cc3)c2)C1` [Compound B0700-546] are > 10 µM, 3.59 µM and 1.75 µM.
Regarding `C=CC(=O)N[C@@H]1CCCN(c2cccc([C@H](C)S(=O)(=O)Nc3ccc(-c4cc5c(N6CCOCC6)ncnc5[nH]4)cc3)c2)C1` [Compound B0700-547], the half-inhibitory concentration (IC50) with K-562 was > 10 µM; in the experiment with MOLM-13 it was 1.39 µM; with MV4-11 it was 0.418 µM.
For `C=CC(=O)N[C@@H]1CCCN(Cc2ccnc(C(=O)Nc3ccc(-c4cc5c(N6CCOCC6)ncnc5[nH]4)cc3F)c2)C1` [Compound B0700-549], the 50% inhibitory concentration (IC50) in the experiment on K-562 was > 10 µM; in the experiment with MOLM-13, 0.475 µM; in the experiment with MV4-11 it was 0.796 µM.
In the same order, the values of `C/C=C/S(=O)(=O)N[C@@H]1CCCN(Cc2ccnc(C(=O)Nc3ccc(-c4cc5c(N6CCOCC6)ncnc5[nH]4)cc3)c2)C1` [Compound B0700-550] are > 10 µM, 0.276 µM and 0.212 µM.
Regarding `C=CC(=O)N[C@@H]1CCCN(c2cccc(C(C)S(=O)(=O)Nc3ccc(-c4cc5c(N6CCOCC6)ncnc5[nH]4)cc3F)c2)C1` (stereo partly drawn) [Compound B0700-559, N-((3R)-1-(3-(1-(N-(2-fluoro-4-(4-morpholino-7H-pyrrolo[2,3-d]pyrimidin-6-yl)phenyl)sulfamoyl)ethyl)phenyl)piperidin-3-yl)acrylamide], the figures for the IC50 in the experiment on K-562, in the experiment on MOLM-13 and in the experiment with MV4-11 were > 10 µM, 3.91 µM and 1.56 µM, respectively.
